Test results as given in publication PMC10845951, “Characterization of a selective, iron-chelating antifungal compound that disrupts fungal metabolism and synergizes with fluconazole” (Microbiology Spectrum, 2024).

Experiments:
HEK-293 and HS-5 cells = assay: Incucyte live-cell imaging of treated human cells (morphology, compound precipitation)
G. mellonella larvae = assay: Toxicity of compound to Galleria mellonella larvae; format: in vivo; conditions: high concentration (30 µM)
Method: (§1) Galleria mellonella was obtained from R.J. Mous Livebait (The Netherlands). The larvae were selected by weight (0.2–0.3 grams) and by the absence of dark spots on the cuticle. The larvae were maintained at room temperature, and the day before the experiment, they were transferred to the temperature at which the experiment was going to be performed (30°C). The number of dead caterpillars was scored every day. […] G. mellonella were infected with either C. glabrata 2001HT or FL-256; C. glabrata cells were grown in liquid media (Oxoid) overnight at 30°C with moderate shaking (150 rpm). Groups of 20 larvae per strain were infected in each experiment. The pro-leg area was cleaned with 70% ethanol using a swab. The larvae were inoculated with 10 µL of C. glabrata suspension at 2.5 × 10^6 cells/mL in PBS containing 50 µg/mL of ampicillin by injection, using a Hamilton syringe with 26-gauge needle in the last left pro-leg.

C. glabrata cells = assay: Dead cell staining with propidium iodide; format: cell-based, Candida glabrata; conditions: 24 h
Method: Propidium iodide (Sigma) was freshly prepared to a final concentration of 5 µg/mL in PBS.
The samples were incubated at 30°C and harvested to a total number of cells equivalent to a 5-mL culture with an OD600 of 0.3 at 6 and 24 h. As a positive control for cell death, cells treated with DMSO were incubated at 75°C for 1 h. The cells were centrifuged at 7,000 rpm for 5 minutes to remove the supernatant, followed by resuspension of the cell pellets in 100-µL 5 µg/mL propidium iodide for 10 minutes in the dark at room temperature. The supernatant was removed by centrifugation at 7,000 rpm for 5 minutes, followed by washing with 500-µL PBS and a final centrifugation at 7,000 rpm for 5 minutes. Finally, the cells were resuspended in 150-µL PBS and measured for fluorescence intensity using a microplate reader.
The autofluorescence of the unstained treated samples was subtracted from raw fluorescence intensities of the stained samples and then normalized to DMSO. Normalized values were log transformed and then analyzed using one-way ANOVA and Tukey’s HSD post hoc test.

[1] = system: G. mellonella larvae infected with C. glabrata 2001HT; assay: Survival assay in infected Galleria mellonella; format: in vivo; conditions: wild-type C. glabrata (2001HT), 30 µM, vs DMSO
Method: as §1

[2] = system: G. mellonella larvae infected with C. glabrata FL-256; assay: Survival assay in infected Galleria mellonella; format: in vivo; conditions: azole-resistant C. glabrata (FL-256), 30 µM, vs DMSO
Method: as §1

C. glabrata WT = assay: Cell proliferation with metal supplementation; format: cell-based, Candida glabrata
Method: One-millimolar stocks of metal solutions (CaCl2, CuCl2, FeCl2, FeCl3, MgCl2, MnCl2, and ZnCl2) were prepared in mQH2O and autoclaved. […] Fifty microliters of either mQH2O or metal solution were added to each well, including 50 µL of refreshed C. glabrata WT with an adjusted OD600 of 0.15. The 96-well plates were measured at OD600 and incubated in plastic bags to prevent evaporation for 24 h, after which the final OD600 was measured.

[3] = Nano liquid chromatography-mass spectrometry metal binding
Method: Liquid chromatography-mass spectrometry (LC-MS)-grade water, acetonitrile, and formic acid (≥99%) were purchased from VWR (Radnor, PA, USA). […] Metal solutions containing 2 µM, 4 µM, 6 µM, and 10 µM CaCl2, CuCl2, FeCl2, FeCl3, MgCl2, MnCl2, and ZnCl2 in 0.1% formic acid in LC-MS-grade water (hereby referred to as 0.1% formic acid) were made. A stock solution of terpyridine (100 µM) in 0.1% formic acid was made and added to the metal solutions to a final concentration of 10 µM terpyridine. All metal solutions in addition to a blank sample containing 10 µM terpyridine in 0.1% formic acid were subjected to nano liquid chromatography (nanoLC-MS) analysis. nanoLC-MS was performed using an nLC EASY 1000 pump connected to a Q-Exactive mass spectrometer (MS) with a Nanospray Flex ion source (all from Thermo Fisher Scientific, Waltham, MA, USA). For separation, a 50 µm (inner diameter) × 5 cm in-house packed nanoLC column containing 2.6-µm Accucore C18 particles (80 Å) was used. The column was packed according to the protocol from Berg et al. ([58]). Trapping of analytes prior to separation was performed online using a 2-cm Acclaim PepMap with 3-µm particles (100 Å). All columns and packing materials were obtained from Thermo Fisher Scientific. The mobile phases consisted of 0.1% formic acid (A) and 90/10/0.1 acetonitrile/water/formic acid (vol/vol/vol) (B).

Candida spp. = assay: Compound screening: Candida proliferation (OD600, 24 h), strain panel; format: cell-based; conditions: YNB −iron
Method: For experiments, yeast cells were routinely cultured in YPD media and incubated at 30°C overnight. The cultures were refreshed the next day for 2–3 h in YNB −iron (0.69% yeast nitrogen base without amino acids or iron, with 2% dextrose) media, unless stated, at the same temperature. After incubation, the optical density (OD600) of the cell cultures was measured and adjusted to 0.15.
The collismycin compounds were provided by EntreChem (Spain) at stock solutions of 20 mM in DMSO and stored at −20°C. For serial dilutions of the compounds in clear 96-well plates, intermediate stock concentrations of 100 µM of compound (100 µL for each technical replicate) were prepared in YNB −iron media unless otherwise specified, and 1:1 serial dilutions were performed using a multi-channel pipette. Fifty microliters of cell culture (OD600 = 0.15) were added to the wells containing the compounds, for a total volume of 150 µL. The final concentrations in the wells (with three technical replicates) were equivalent to 0.5, 1, 2.1, 4.2, 8.4, 16.7, 33.3, and 66.6 µM. The OD600 of each well was quantified, and the plates were incubated inside plastic bags (to prevent evaporation) at 30°C for 24 h, after which the final OD600 was measured. The EC50 was calculated using the four-parameter log logistic function with the drc package in R ([57]).

[4] = system: C. glabrata WT (JEY10028) cells; assay: Mitochondrial staining with MitoTracker; format: cell-based, Candida glabrata; conditions: 6 h and 24 h, vs DMSO

Compound: c1ccc(-c2cccc(-c3ccccn3)n2)nc1 [2,2′:6′,2′′-terpyridine]
- cell morphology (HEK-293 and HS-5 cells; 100 µM): morphological changes
- compound precipitation / solubility (HEK-293 and HS-5 cells; cell culture medium, up to 100 µM): better solubility
- toxicity to the larvae (G. mellonella larvae): well tolerated
- number of propidium iodide-positive cells (C. glabrata cells; 10 µM, vs DMSO): apparent reduction in the number of propidium iodide-positive cells
- mode of antifungal effect (C. glabrata cells): cytostatic effect
- propidium iodide fluorescence (cell death) (C. glabrata cells; increasing concentrations): no significant difference in fluorescence intensity compared to DMSO
- survival of infected larvae [1]: significantly improved the survival
- survival of infected larvae [2]: significantly improved the survival
- change of EC50 on metal addition (C. glabrata WT; +5 µM Cu^2+ (CuCl2), 24 h): significantly increased
- change of EC50 on metal addition (C. glabrata WT; +5 µM FeCl2, 24 h): significantly increased
- change of EC50 on metal addition (C. glabrata WT; +5 µM Zn^2+ (ZnCl2), 24 h): significantly increased
- binding of Fe^2+ ([3]; 2-10 µM metal, 10 µM compound): preferentially binds Fe^2+ in a concentration-dependent manner
- binding of Fe^3+ ([3]; 2-10 µM metal, 10 µM compound): much lesser extent than Fe^2+
- binding of Cu^2+ ([3]; even at high concentrations): hardly bind
- binding of Zn^2+ ([3]; even at high concentrations): hardly bind
- inhibition of growth of Candida spp. compared to ColA (Candida spp.): more potently than ColA
- MitoTracker Red CMXRos fluorescence [4]: lower fluorescence intensities
